Data taken from patent publication US10808008B2, “Aromatic-cationic peptides and uses of same” (Cornell University, priority 2012, dated 2020).
Read-outs that look alike come from different tables or passages of the source.

Columns and labels:
[1] = Fluorescence spectroscopy of labelled peptide with other phospholipids; assay type: binding; conditions: 1 μM peptide
Protocol: 1-palmitoyl-2-oleoyl-sn-glycero-3-phosphocholine (POPC), 1-palmitoyl-2-oleoyl-sn-glycero-3-phosphate (POPA), 1-palmitoyl-2-oleoyl-sn-glycero-3-phospho-L-serine (POPS), 1-palmitoyl-2-oleoyl-sn-glycero-3-phosphoethanolamine (PE), and 1,2-dipalmitoyl-sn-glycero-3-phospho-(1′-rac-glycerol) (DPPG) were obtained from Avanti Polar Lipids Inc (Alabaster, Ala.).
Changes in the emission intensity of the [atn]SS-02 and the [ald]SS-02 were measured using a Hitachi F-4500 fluorescence spectrophotometer. The different solvents used to dissolve the various phospholipids (chloroform, methanol and ethanol) had negligible effect on the fluorescence spectrum of [atn]SS-02 and [ald]SS-02. All experiments were done in low ionic solution (deionized water) to optimize electrostatic interactions of peptides with phospholipids.

[2] = tested on: isolated rat kidney mitochondria / cytochrome c-deficient mitoplasts; experiment: Fluorescence quenching by isolated mitochondria or cytochrome c-deficient mitoplasts; assay type: binding
Protocol: The quenching by cytochrome c was not displaced by sequential additions of bovine serum albumin (FIG. 12C, A+arrows) (500 μg/ml). […] Accordingly, aromatic-cationic peptides of the present disclosure are useful for the prevention or treatment of diseases or disorders characterized by dysregulation of cytochrome c.
Uptake of [atn]SS-02 by isolated mitochondria or cytochrome c-deficient mitoplasts was determined by fluorescence quenching of [atn]SS-02 (λex/λem=320/420) upon addition of a fresh mitochondrial or mitoplast suspension (0.35 mg).
Mitochondria were isolated from the kidney of male Sprague-Dawley rats (Charles River Laboratories International, Inc., Wilmington, Mass.) weighing 250 to 300 g. Excised kidneys were cut and incubated in wash buffer (200 mM mannitol, 10 mM sucrose, 5 mM HEPES, 1 g/L fatty-acid-free BSA, to pH to 7.4 with KOH) on ice for 10 minutes. Samples were washed 2 times in isolation buffer (wash buffer with 1 mM EGTA), homogenized for 3 minutes, and then centrifuged in 20 ml of isolation buffer at 900×g for 10 minutes. The white fatty acid layer was then removed and the […]. The supernatant was centrifuged at 11,000×g for 10 minutes, and the pellet was re-suspended in 800 μl of wash buffer and kept on ice for further analysis.
Mitoplasts deficient in cytochrome c were prepared by first treating fresh or once-frozen mitochondria with 3.3 mg/ml digitonin for 45 minutes on ice, in order to remove the mitochondrial outer membrane. To remove electrostatically-bound cytochrome c, […] pH 7.4 was then added to the mix and centrifuged at 19,000×g for 30 minutes. The pellet was collected and re-dissolved in wash buffer and stored on ice until use. Only mitoplast preparations that responded to the addition of 200 nM exogenous cytochrome c by 4-5 fold increase in mitochondrial respiration (oxygen consumption) were used in the study. […]

[3] = tested on: cytochrome c-depleted mitoplasts; experiment: Respiration in cytochrome c-depleted mitoplasts; assay type: biochemical, rat
Protocol: Rates of respiration were measured in the presence of 500 μM Succinate with or without 100 μM SS-31. The experiment was carried out in triplicate, with n=3. […] Accordingly, aromatic-cationic peptides of the present disclosure are useful for the prevention or treatment of diseases or disorders characterized by dysregulation of cytochrome c.
A model of cytochrome c tightly bound to mitochondrial cardiolipin was used to investigate interaction of SS-31 with cytochrome c-CL complex in mitochondria. After removal of outer membrane with digitonin, mitoplasts were washed with 120 mM KCl to remove all free and electrostatically associated cytochrome c, leaving only cytochrome c tightly bound to CL.

[4] = tested on: isolated rat kidney mitochondria; experiment: O2 consumption in isolated mitochondria; assay type: biochemical
Protocol: Fresh mitochondria were isolated from rat kidney as described previously. Electron flux was measured by O2 consumption (Oxygraph Clark electrode) as previously described using different substrates for C1 (glutamate/malate), C2 (succinate), and C3 (TMPD/ascorbate). Assays were carried out under low substrate conditions in order to avoid saturating the enzyme reactions. ATP production in isolated mitochondria was determined kinetically using the luciferase method (Biotherma) in a 96-well luminescence plate reader (Molecular Devices). The initial maximal rate for ATP synthesis was determined over the first minute.
Oxygen consumption of isolated rat kidney mitochondria was determined using the Oxygraph (FIG. 5). Rates of respiration were measured in the presence of different concentrations of SS-31 in state 2 (400 μM ADP only), state 3 (400 μM ADP and 500 μM substrates) and state 4 (substrates only). All experiments were done in triplicate with n=4−7. […] Accordingly, aromatic-cationic peptides of the present disclosure are useful for promoting electron transfer to oxygen without uncoupling mitochondria, increasing O2 consumption, and treating diseases or conditions related to dysregulation of O2 consumption in mitochondria.
SS-20 or SS-31 was added at 100 μM concentrations to isolated mitochondria in respiration buffer containing 0.5 mM succinate (complex II substrate) and 400 μM ADP. Similar increases in O2 consumption were observed when low concentrations of complex I substrates (glutamate/malate) were used (data not shown). […] Accordingly, targeting SS-20 and SS-31 to the IMM can facilitate electron flux in the electron transport chain and improve ATP synthesis, especially under conditions of reduced substrate supply.
SS-20 or SS-31 was added at 10 μM or 100 μM concentrations to isolated mitochondria in respiration buffer containing glutamate/malate (complex I substrate), 0.5 mM succinate (complex II substrate) or 3 μM TMPD/1 mM ascorbate (direct reductant of cytochrome c). 400 μM ADP was added to initiate State 3 respiration.

In the case of 2′,6′-Dmt-D-Arg-Ald-Lys-NH2 [SS-36], the “interaction with POPC, POPE and neutral cholesterol” value [1] is reported as “No interaction”.

In the case of “2′,6′-Dmt-D-Arg-Phe-(atn)Dap-NH2 [SS-19]”, the “quenching of fluorescence by cytochrome c-depleted/deficient mitoplasts versus mitochondria” value [2] is reported as “significantly reduced”, the “quenching of fluorescence by isolated mitochondria” value ([2]; 10 μM peptide, 0.2 mg mitochondria) is reported as “quenched by sequential addition of 0.2 mg isolated rat renal kidney mitochondria” and the “quenching of fluorescence by cytochrome c-depleted/deficient mitoplasts versus mitochondria” value ([2]; listed as [atn]SS-02) is reported as “appreciable in cytochrome c-deficient mitoplasts but was less than in intact mitochondria”.

In the case of D-Arg-2′,6′-Dmt-Lys-Phe-NH2 [SS-31], the “respiration (O2 consumption) in cytochrome c-depleted mitoplasts” value ([3]; 500 μM succinate, 100 μM SS-31) is reported as “Enhances Respiration in Cytochrome c-Depleted Mitoplasts”, the “complex II respiration in mitoplasts with tightly bound cytochrome c” value ([3]; mitoplasts washed with 120 mM KCl) is reported as “enhances complex II respiration in mitoplasts with cytochrome c tightly bound to inner mitochondrial membrane in a dose-dependent manner” and the “O2 consumption in state 3 respiration” value ([4]; 10 μM or 100 μM peptide, complex I or complex II substrates or TMPD/ascorbate, 400 μM ADP) is reported as “increased O2 consumption in state 3 respiration”. The “electron flux measured by O2 consumption” value ([4]; 100 μM peptide, 0.5 mM succinate, 400 μM ADP) was “promote electron flux” and the “electron transfer to oxygen (rates of respiration)” value ([4]; state 2, state 3 and state 4, different concentrations of SS-31) was “promoted electron transfer to oxygen without uncoupling mitochondria”.
